Data from patent US8415469B2, “Compounds and methods for kinase modulation, and indications therefor” (Plexxikon Inc., priority 2005, dated 2013).

Key:
Format in all cases: biochemical
[1] = biological target: T1, Kdr (Homo sapiens, UniProt P35968); assay: Z'-Lyte FRET kinase assay (Invitrogen), Kdr; details: read-out: IC50, activity toward kinase Kdr
T1 construct: purchased Invitrogen (assay run by Invitrogen)

[2] = biological target: T2, Stk6 (Homo sapiens, UniProt O14965); assay: Z'-Lyte FRET kinase assay (Invitrogen), Stk6; details: read-out: IC50, activity toward kinase Stk6
T2 construct: purchased Invitrogen (Carlsbad, Calif.), screening service
T2 sequence (O14965 1-403): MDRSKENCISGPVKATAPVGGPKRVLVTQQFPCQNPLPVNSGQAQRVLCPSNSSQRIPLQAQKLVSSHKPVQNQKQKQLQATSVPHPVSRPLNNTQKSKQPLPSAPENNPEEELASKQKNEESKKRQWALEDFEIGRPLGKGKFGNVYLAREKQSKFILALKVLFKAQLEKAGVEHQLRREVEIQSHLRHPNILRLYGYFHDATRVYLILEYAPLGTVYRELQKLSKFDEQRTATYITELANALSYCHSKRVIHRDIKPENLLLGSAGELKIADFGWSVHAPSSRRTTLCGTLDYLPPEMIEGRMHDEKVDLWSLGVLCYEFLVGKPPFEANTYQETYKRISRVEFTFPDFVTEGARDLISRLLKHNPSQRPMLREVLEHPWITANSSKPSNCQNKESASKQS

[3] = biological target: T3, Zap70 (Homo sapiens, UniProt P43403); assay: AlphaScreen kinase assay, Zap70; details: read-out: IC50, activity toward kinase Zap70
T3 construct: P1868.pFastBac1 ZAP70 D327-G606 HIS, WT; His7 (HHHHHHH) (C); made in house
T3 sequence (P43403 with tags, fused parts or gaps): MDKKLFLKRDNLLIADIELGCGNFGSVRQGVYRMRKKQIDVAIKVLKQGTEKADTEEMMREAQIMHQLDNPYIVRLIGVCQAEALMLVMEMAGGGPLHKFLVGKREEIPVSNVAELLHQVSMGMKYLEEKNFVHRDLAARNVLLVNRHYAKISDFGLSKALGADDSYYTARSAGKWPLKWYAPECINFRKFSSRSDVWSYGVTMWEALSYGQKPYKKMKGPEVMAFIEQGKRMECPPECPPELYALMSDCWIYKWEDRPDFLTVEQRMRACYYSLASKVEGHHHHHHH
Method in brief: (§1)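 Bead-proximity format: phosphopeptide links anti-phospho antibody acceptor beads to streptavidin donor beads via biotin tag. Compounds were serially diluted 1:3 (8 points) from 20 mM stocks in DMSO.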

[4] = biological target: T4, Kit (Homo sapiens, UniProt P10721); assay: AlphaScreen kinase assay, Kit; details: read-out: IC50, activity toward kinase Kit
T4 construct: P1332.N6 BI PTP KIT M552-K948-X COD; His6 (N); made in house; host or cells: E. coli (PTP1B co-expressed)
T4 sequence (P10721 with tags, fused parts or gaps): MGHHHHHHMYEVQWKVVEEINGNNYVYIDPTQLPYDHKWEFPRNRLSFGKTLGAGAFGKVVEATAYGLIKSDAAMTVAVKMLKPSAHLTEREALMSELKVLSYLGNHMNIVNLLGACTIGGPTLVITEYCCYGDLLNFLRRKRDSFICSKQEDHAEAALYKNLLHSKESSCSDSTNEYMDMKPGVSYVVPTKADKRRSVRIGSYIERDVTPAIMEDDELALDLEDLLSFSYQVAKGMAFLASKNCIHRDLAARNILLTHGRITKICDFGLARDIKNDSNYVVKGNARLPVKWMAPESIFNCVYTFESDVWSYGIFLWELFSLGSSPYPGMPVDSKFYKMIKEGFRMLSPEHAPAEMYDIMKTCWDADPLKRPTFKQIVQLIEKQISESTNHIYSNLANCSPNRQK

[5] = biological target: T5, PKC theta (Homo sapiens, UniProt Q04759); assay: Z'-Lyte FRET kinase assay (Invitrogen), PKC theta; details: read-out: IC50, activity toward kinase PKC theta
T5 construct: purchased Invitrogen (Carlsbad, Calif.), screening service
T5 sequence (Q04759 whole entry): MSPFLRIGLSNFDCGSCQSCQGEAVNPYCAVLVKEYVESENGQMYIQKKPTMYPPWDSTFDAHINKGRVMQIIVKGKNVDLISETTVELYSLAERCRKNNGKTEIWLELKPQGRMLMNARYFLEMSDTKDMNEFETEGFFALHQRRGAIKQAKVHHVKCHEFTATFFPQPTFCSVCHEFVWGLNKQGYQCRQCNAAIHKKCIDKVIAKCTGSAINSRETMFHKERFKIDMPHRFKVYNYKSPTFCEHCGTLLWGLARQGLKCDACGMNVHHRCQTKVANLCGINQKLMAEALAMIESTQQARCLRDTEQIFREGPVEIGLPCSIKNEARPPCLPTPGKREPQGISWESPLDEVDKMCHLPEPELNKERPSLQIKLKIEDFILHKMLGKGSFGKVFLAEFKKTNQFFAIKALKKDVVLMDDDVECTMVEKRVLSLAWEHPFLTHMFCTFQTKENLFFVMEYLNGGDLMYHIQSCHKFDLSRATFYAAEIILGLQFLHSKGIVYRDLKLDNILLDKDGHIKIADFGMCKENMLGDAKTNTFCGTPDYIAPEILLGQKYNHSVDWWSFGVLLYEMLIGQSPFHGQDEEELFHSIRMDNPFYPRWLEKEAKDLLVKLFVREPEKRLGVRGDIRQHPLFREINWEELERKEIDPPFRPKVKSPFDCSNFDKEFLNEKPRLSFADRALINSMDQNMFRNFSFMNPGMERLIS
Source text: The effect of potential modulators of kinase activity can be measured in a variety of different assays known in the art. For example, direct radiometric, indirect FRET or AlphaScreen assays may be used to assess the level of phosphorylation of a substrate in the presence of test compounds in order to determine the inhibitory affect of the compound on the kinase. Invitrogen (Carlsbad, Calif.) uses a FRET based assay for Btk, EGFR, EphB2, Flt3, lrak4, Kdr, MAP2K1, MAPKAPK2, PDGFRB, PKC theta, Stk6 and Yes. For these assays, compounds of the invention were screened by Invitrogen using Z′-Lyte™ kinase assay.
Briefly, the Invitrogen kinase assay involves use of a specific peptide substrate optimized for each kinase, containing a fluorophore at each end that make up the FRET pair. The peptide sensitivity to proteolytic cleavage depends on phosphorylation of the peptide. Non-phosphorylated peptide is cleaved by a protease while peptide phosphorylated by the kinase is not cleaved. Cleavage of the peptide disrupts the FRET between the donor (coumarin) and acceptor (fluorescein) fluorophores, resulting in an increase in the ratio of donor emission to acceptor emission. The emission ratio of coumarin to fluorescein is used to assess the reaction progress. The extent of phosphorylation is determined from the emission ratio, which is low when the kinase is active (phosphorylated peptide is not cleaved, FRET pair connected) or higher for inhibited kinase (non-phosphorylated peptide is cleaved, FRET pair separated). Thus, the assay involves a kinase reaction in the presence of varying concentrations of a given compound, a development reaction with site specific protease, and detection of the fluorescent emission ratio of coumarin and fluorscein. […] Reaction conditions for each kinase are determined to provide optimal reaction times, incubation temperature, kinase and ATP concentrations. Test samples are made up in 1× kinase buffer (50 mM HEPES pH 7.5, 50 mM MgCl2, 5 mM EGTA, 0.05% BRIJ-35) and compound at desired concentration prepared in DMSO such that the final DMSO is 1%. […] Typically, assay plates are prepared to 10 μl final volume per sample, adding 2.5 μl of compound at 4× the desired concentration in 4% DMSO (serial dilution of compound provides concentration curve), 5 μl of the desired kinase mixed with Z′-LYTE™ peptide substrate (2× in 2× kinase buffer, final peptide at 2 μM), and 2.5 μl of 4×ATP solution. All kinase except for MAP2K1 were at 10 μM ATP in the kinase reaction, while MAP2K1 was at 100 μM. Samples are mixed and the kinase reaction is incubated 1 hour at room temperature, after which 5 μl of development solution is added and mixed. After incubation for another 1 hour at room temperature, 5 μl of stop reagent is added to each sample and mixed. The fluorescence signals are measured to determine the emission ratio.

[6] = biological target: T6, Ret (Homo sapiens, UniProt P07949); assay: AlphaScreen kinase assay, Ret; details: read-out: IC50, activity toward kinase Ret
T6 construct: P1378.pET-SF BI-PTP RET H661-R1012 HIS; made in house
T6 sequence (P07949 with tags, fused parts or gaps): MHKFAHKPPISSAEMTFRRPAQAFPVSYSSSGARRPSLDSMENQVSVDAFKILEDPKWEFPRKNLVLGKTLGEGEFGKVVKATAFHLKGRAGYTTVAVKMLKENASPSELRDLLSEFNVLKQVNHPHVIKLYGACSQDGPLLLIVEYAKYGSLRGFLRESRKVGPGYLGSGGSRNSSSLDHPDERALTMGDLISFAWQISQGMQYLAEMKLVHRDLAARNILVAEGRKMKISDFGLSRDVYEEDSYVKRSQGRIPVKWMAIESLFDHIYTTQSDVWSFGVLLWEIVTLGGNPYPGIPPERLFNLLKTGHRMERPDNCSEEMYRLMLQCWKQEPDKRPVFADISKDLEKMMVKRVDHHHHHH

[7] = biological target: T7, Jnk2 (Homo sapiens, UniProt P45984); assay: AlphaScreen kinase assay, Jnk2; details: read-out: IC50, activity toward kinase Jnk2
T7 construct: purchased Roche Protein Expression Group (Indianapolis, IN)
T7 sequence (P45984 whole entry): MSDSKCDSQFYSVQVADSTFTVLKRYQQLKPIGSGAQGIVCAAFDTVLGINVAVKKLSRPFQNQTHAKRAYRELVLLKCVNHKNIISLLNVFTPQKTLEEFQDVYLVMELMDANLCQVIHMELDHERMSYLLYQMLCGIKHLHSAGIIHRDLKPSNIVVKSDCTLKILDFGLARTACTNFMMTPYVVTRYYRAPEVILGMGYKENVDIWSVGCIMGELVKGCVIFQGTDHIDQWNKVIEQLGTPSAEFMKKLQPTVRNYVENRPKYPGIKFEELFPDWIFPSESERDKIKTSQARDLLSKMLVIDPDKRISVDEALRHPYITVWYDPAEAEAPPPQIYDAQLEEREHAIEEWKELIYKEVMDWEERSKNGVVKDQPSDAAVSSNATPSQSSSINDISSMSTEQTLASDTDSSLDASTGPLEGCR
Method in brief: as §1

[8] = biological target: T8, Pyk2 (Homo sapiens, UniProt Q14289); assay: AlphaScreen kinase assay, Pyk2; details: read-out: IC50, activity toward kinase Pyk2
T8 construct: purchased Upstate Biotechnology
T8 sequence (Q14289 whole entry): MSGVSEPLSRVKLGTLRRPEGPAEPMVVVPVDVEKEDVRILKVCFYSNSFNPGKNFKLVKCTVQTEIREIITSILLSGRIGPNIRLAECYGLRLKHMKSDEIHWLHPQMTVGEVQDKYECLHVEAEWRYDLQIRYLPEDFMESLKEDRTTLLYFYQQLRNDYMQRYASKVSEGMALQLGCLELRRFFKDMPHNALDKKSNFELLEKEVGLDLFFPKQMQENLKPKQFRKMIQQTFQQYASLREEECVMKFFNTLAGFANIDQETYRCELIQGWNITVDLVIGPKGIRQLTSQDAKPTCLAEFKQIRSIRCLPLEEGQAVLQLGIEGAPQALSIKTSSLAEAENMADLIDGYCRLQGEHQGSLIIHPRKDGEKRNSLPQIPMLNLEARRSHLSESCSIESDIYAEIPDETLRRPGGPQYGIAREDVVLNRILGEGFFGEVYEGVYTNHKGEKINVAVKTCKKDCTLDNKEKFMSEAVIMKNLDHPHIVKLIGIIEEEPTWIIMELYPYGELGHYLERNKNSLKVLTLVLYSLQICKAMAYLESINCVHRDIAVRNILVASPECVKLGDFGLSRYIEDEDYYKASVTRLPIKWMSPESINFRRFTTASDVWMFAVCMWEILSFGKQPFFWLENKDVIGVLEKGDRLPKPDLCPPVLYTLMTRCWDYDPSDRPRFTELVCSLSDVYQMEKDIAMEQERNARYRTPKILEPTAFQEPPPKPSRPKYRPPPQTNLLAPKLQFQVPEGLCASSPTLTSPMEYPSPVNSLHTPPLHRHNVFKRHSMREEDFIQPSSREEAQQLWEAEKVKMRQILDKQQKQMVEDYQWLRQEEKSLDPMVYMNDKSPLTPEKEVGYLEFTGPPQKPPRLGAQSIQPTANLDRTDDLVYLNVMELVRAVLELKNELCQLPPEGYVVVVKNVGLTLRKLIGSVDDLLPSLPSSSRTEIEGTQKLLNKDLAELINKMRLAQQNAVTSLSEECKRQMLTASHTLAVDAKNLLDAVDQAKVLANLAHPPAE

[9] = biological target: MAP4K4 (Homo sapiens, UniProt O95819); assay: AlphaScreen kinase assay, MAP4K4; details: read-out: IC50, activity toward kinase MAP4K4
[10] = biological target: T9, Jnk1 (Homo sapiens, UniProt P45983); assay: AlphaScreen kinase assay, Jnk1; details: read-out: IC50, activity toward kinase Jnk1
T9 construct: purchased Upstate Biotechnology

[11] = biological target: T10, Fak (Homo sapiens, UniProt Q05397); assay: AlphaScreen kinase assay, Fak; details: read-out: IC50, activity toward kinase Fak
T10 construct: P1358.pFastBacHtb FAK S411-Q686-X; His6 with pFastBacHTb leader (TEV site) (N); made in house; host or cells: Sf9 (baculovirus)
T10 sequence (Q05397 411-686): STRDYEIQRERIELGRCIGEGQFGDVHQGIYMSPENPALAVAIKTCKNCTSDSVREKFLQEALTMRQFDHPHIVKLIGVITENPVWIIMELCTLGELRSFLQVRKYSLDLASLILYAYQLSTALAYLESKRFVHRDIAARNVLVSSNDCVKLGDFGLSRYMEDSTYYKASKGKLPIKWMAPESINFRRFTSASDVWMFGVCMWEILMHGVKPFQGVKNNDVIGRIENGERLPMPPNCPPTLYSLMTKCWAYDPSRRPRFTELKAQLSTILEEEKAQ
Source text: (§2) AlphaScreen assay was used to screen additional kinases. The assay is similarly dependent on the phosphorylation of a peptide substrate. In this assay, an antibody that recognizes phosphorylated substrate is bound to an acceptor bead. The peptide substrate is attached to biotin, which binds to a donor head that contains streptavidin. Thus phosphorylated substrate is bound by antibody and streptavidin, bringing the donor and acceptor heads into close proximity when kinase is not inhibited. The donor produces singlet oxygen which results in emission from the acceptor when they are in close proximity. Conversely, when kinase is inhibited, the donor and acceptor beads are not associated and the emission from the acceptor is reduced.
(§3) AlphaScreen assays were done using compounds dissolved in DMSO to a concentration of 20 mM. The compounds were diluted accordingly to the desired final concentrations in each sample well, using 1:3 serial dilution for a total of 8 concentration points. Plates were prepared such that each kinase reaction is 20 μl in 1× kinase buffer, 5% DMSO and 10 μM ATP. After incubation of the kinase reaction for 1 hour at room temperature, 5 μl of donor beads in stop buffer (50 mM EDTA in 1× kinase buffer) was added, the sample was mixed and incubated for 20 minutes at room temperature before adding 5 μl of acceptor beads in stop buffer. The samples were incubated for 60 minutes at room temperature and the signal per well was read on AlphaQuest reader.

[12] = biological target: T11, Btk (Homo sapiens, UniProt Q06187); assay: Z'-Lyte FRET kinase assay (Invitrogen), Btk; details: read-out: IC50, activity toward kinase Btk
T11 construct: purchased Invitrogen (assay run by Invitrogen)

[13] = biological target: T12, Jnk3 (Homo sapiens, UniProt P53779); assay: AlphaScreen kinase assay, Jnk3; details: read-out: IC50, activity toward kinase Jnk3
T12 construct: purchased Upstate Biotechnology
T12 sequence (P53779 whole entry): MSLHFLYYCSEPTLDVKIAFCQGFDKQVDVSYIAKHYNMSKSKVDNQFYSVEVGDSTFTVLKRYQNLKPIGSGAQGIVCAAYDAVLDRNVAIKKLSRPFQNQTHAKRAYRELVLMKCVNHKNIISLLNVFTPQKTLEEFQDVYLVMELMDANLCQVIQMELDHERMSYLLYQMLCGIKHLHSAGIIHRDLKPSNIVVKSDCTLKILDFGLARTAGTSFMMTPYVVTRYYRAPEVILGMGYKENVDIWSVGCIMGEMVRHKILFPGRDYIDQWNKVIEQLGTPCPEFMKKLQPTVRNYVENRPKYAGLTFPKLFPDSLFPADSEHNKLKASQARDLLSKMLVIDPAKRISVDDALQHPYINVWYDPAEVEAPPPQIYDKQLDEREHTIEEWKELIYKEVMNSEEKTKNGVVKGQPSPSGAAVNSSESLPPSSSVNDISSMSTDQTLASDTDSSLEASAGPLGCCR

[14] = biological target: T13, FGFR1 (Homo sapiens, UniProt P11362, C488A/C584S); assay: AlphaScreen kinase assay, FGFR1; details: read-out: IC50, activity toward kinase FGFR
T13 construct: P1351.pET N6 BI-PTP FGFR A458-E765-X C488A, C584S; made in house; host or cells: E. coli (PTP1B co-expressed)
Source text: as §2, §3

[15] = biological target: T14, B-Raf (Homo sapiens, UniProt P15056); assay: AlphaScreen kinase assay, B-Raf; details: read-out: IC50, activity toward kinase B-Raf
T14 construct: purchased Upstate Biotechnology

[16] = biological target: T15, Flt1 (Homo sapiens, UniProt P17948); assay: AlphaScreen kinase assay, Flt1; details: read-out: IC50, activity toward kinase Flt1
T15 construct: P1826.pETN6 BI-PTP FLT1 M799-D1165-X WT; His6 (N); made in house; host or cells: E. coli (PTP1B co-expressed)
T15 sequence (P17948 with tags, fused parts or gaps): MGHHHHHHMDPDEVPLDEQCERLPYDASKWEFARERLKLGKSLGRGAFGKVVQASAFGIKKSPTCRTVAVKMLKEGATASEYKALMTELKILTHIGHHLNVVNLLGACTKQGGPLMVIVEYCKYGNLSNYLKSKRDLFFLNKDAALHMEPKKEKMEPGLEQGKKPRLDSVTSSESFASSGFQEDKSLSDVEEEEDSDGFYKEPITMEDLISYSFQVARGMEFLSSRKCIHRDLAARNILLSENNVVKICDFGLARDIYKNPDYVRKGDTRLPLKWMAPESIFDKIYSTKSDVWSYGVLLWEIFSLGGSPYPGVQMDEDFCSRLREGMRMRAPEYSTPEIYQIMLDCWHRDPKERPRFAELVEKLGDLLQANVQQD

[17] = biological target: T16, Fms (Homo sapiens, UniProt P07333); assay: AlphaScreen kinase assay, Fms; details: read-out: IC50, activity toward kinase Fms
T16 construct: purchased Upstate Biotechnology

[18] = biological target: Akt3 (Homo sapiens, UniProt Q9Y243); assay: AlphaScreen kinase assay, Akt3; details: read-out: IC50, activity toward kinase Akt3
Method in brief: as §1

[19] = biological target: T17, Src (Homo sapiens, UniProt P12931); assay: AlphaScreen kinase assay, Src; details: read-out: IC50, activity toward kinase Src
T17 construct: P1144. pET-N6 BI-PTP SRC V86-L536-X; made in house

[20] = biological target: T18, c-Raf-1 (Homo sapiens, UniProt P04049); assay: AlphaScreen kinase assay, c-Raf-1; details: read-out: IC50, activity toward kinase c-Raf-1
T18 construct: purchased Upstate Biotechnology

[21] = biological target: T19, Yes (Homo sapiens, UniProt P07947); assay: Z'-Lyte FRET kinase assay (Invitrogen), Yes; details: read-out: IC50, activity toward kinase Yes
T19 construct: purchased Invitrogen (Carlsbad, Calif.), screening service
Method in brief: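 Z′-Lyte FRET assay: kinase phosphorylates 2 μM peptide substrate at 10 μM ATP in 50 mM HEPES pH 7.5, 50 mM MgCl2, 5 mM EGTA, 0.05% BRIJ-35, 1% DMSO, 1 h at room temperature. Protease development 1 h; coumarin/fluorescein emission ratio gives phosphorylation extent over compound concentration curves.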

[22] = biological target: T20, B-Raf V600E (Homo sapiens, UniProt P15056, V600E); assay: AlphaScreen kinase assay, B-Raf V600E; details: read-out: IC50, activity toward kinase B-Raf V600E
T20 construct: P4254. pFastBacBD-CDC37 BRAF D437-K722-X, V600E; His6 with pFastBac HT leader (TEV site) (N); made in house; host or cells: Sf9 (baculovirus; chaperone CDC37 co-expressed)
T20 sequence (P15056 with tags, fused parts or gaps V600E): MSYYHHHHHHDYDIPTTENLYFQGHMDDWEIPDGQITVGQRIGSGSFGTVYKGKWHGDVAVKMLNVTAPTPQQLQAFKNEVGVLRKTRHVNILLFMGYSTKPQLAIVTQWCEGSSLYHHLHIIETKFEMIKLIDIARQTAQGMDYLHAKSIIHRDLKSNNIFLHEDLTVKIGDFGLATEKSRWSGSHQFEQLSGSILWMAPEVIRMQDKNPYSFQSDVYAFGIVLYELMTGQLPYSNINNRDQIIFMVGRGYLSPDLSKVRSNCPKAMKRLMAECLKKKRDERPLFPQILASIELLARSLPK

Measured: IC50

T1 sequence (P35968 20-1356): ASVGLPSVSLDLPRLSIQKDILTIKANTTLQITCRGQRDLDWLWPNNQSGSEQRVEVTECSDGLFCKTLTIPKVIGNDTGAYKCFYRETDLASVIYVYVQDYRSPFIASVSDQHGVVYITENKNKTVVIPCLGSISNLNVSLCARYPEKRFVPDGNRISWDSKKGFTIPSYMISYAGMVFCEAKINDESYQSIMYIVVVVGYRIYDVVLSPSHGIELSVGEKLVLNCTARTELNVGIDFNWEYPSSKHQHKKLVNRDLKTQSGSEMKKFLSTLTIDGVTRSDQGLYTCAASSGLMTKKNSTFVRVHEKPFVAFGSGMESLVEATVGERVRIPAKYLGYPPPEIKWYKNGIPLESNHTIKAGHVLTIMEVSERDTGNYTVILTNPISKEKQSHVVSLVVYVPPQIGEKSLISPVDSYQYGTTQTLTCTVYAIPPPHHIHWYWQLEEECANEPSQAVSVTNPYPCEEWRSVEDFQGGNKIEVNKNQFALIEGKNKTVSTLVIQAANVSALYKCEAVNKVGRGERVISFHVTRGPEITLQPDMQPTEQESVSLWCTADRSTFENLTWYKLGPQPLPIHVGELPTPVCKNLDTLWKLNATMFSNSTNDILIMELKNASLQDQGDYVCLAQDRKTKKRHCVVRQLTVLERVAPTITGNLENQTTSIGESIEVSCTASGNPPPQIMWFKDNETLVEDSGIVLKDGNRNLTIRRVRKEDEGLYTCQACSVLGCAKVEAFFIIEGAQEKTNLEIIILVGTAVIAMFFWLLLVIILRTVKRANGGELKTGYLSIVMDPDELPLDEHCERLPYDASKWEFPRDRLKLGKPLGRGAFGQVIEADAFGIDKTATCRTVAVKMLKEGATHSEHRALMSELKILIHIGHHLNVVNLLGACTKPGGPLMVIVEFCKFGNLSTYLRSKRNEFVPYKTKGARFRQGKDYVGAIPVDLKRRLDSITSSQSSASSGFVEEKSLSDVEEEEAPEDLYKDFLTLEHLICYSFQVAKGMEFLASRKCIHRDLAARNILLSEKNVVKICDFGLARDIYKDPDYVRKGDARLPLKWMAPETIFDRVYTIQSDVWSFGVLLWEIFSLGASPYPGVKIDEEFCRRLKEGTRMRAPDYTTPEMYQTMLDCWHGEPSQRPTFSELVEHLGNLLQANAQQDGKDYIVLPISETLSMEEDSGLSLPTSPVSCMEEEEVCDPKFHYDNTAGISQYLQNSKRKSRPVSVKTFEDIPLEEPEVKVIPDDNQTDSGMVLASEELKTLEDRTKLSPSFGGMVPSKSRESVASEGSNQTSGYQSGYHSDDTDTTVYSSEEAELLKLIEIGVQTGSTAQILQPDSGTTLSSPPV

CC(=O)Nc1cccc(-c2ccnc3[nH]ccc23)c1 [Compound P-0030]
≤ 10 µM: [1] | [2] | [3] | [4] | [5]

O=C1Nc2ccccc2/C1=C/c1c[nH]c2ncccc12 [Compound P-0069]
≤ 10 µM: [1] | [6] | [2] | [7] | [8] | [9] | [4] | [5]

O=C(c1ccc(O)cc1Cl)c1c[nH]c2ncc(-c3cccs3)cc12 [Compound P-0112]
≤ 10 µM: [10] | [11] | [12] | [13] | [1] | [14] | [15] | [16] | [17] | [18] | [8] | [19] | [20] | [4] | [21] | [5] | [22]

COc1ccc(-c2c[nH]c3ncccc23)cc1OC [Compound P-0238]
≤ 10 µM: [13] | [7] | [5]
